Source: patent publication US9415055B2, “Cyclic amines” (H. Lundbeck A/S, priority 2012, dated 2016)
pIC50: −log10 of the molar value.

Biological target: P2X7 receptor (Homo sapiens (Human), UniProt Q99572)
Experiment: P2X7 FLIPR assay: antagonism of BzATP response in 293 HEK cells stably expressing P2X7 receptor
Type: cell-based
Conditions: FLIPR fluorescence (Fluo-4), agonist BzATP, 293 HEK cells stably transfected with P2X7 receptor
Method: Cells were plated to cell density of approximately 15,000 cells/well in 384-well assay plates (50 μl/well) with 1.5% low serum media (DMEM, 1.5% BCS, 1% L-glut (2 mM), 1% P/S).
Cells were plated to cell density of approximately 15,000 cells/well in 384-well assay plates (50 μl/well) with 1.5% low serum media (DMEM, 1.5% FBS, 1% L-glut (2 mM), 10 mM HEPES, 1% P/S). Cells were plated 24 hours prior to assay. Cells expressing human, rat or mouse P2X7 receptor were assayed in the following manner.
Fluo-4 NW dye mix (Molecular Probes, Inc., Eugene, Oreg., USA) was prepared in buffer (see manufacturer's instructions). Cell plates were removed from the 37° C. incubator, the media discarded and then 30 μL of dye was added to each well. Plates were placed in the 37° C., non-CO2 incubator for 30 minutes and then room temperature for 30 minutes.
Compound mixtures (A) were added to assay plates containing cells and placed at room temperature for 30 minutes, then BzATP (B) was added. Fluorescence was read using the Tetra FLIPR® (Molecular Devices, Inc., Sunnyvale, Calif., USA) and IC50 values were calculated by standard methods to determine antagonist activity.

Chain of P2X7 receptor (Q99572 whole entry): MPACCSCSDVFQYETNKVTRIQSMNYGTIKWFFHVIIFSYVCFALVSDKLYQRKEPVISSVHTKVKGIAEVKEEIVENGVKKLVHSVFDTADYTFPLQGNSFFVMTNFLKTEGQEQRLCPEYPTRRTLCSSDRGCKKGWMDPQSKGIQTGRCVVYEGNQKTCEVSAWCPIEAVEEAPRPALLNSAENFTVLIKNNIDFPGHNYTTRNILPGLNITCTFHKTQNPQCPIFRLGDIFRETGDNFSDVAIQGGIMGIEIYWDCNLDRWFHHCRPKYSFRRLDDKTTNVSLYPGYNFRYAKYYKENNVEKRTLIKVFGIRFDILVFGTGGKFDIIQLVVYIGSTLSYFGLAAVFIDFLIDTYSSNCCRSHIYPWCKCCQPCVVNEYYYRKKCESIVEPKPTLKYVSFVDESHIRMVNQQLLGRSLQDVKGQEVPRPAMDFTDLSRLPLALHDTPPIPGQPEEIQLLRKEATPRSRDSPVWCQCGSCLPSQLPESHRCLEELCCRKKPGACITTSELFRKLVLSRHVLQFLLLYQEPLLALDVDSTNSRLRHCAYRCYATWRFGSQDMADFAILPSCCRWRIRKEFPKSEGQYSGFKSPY

Compound	pIC50
O=C(NCC(c1cnc(C(F)(F)F)nc1)N1CCC(F)(F)CC1)c1c(Cl)cc(F)cc1Cl (single isomer, unassigned; (+)) [(+)2,6-dichloro-N-[2-(4,4-difluoro-1-piperidyl)-2-[2-(triflu] [(+)2,6-dichloro-4-fluoro-N-(2-(4,4-difluoropiperidin-1-yl)-2-(2-(trifluoromethyl)pyrimidin-5-yl)ethyl)benzamide]	8.12
O=C(NCC(c1cnc(C(F)(F)F)nc1)N1CCC(F)(F)CC1)c1c(Cl)ccc(F)c1Cl (single isomer, unassigned; (+)) [(+)2,6-dichloro-N-[2-(4,4-difluoro-1-piperidyl)-2-[2-(triflu] [(+)2,6-dichloro-5-fluoro-N-(2-(4,4-difluoropiperidin-1-yl)-2-(2-(trifluoromethyl)pyrimidin-5-yl)ethyl)benzamide]	8.15
O=C(NCC(c1cnc(C(F)(F)F)nc1)N1CCC(F)(F)CC1)c1c(Cl)cccc1Cl (single isomer, unassigned; (+)) [(+)2,6-dichloro-N-[2-(4,4-difluoro-1-piperidyl)-2-[2-(triflu] [(+)2,6-dichloro-N-(2-(4,4-difluoropiperidin-1-yl)-2-(2-(trifluoromethyl)pyrimidin-5-yl)ethyl)benzamide]	8.33
Cc1ncc(C(CNC(=O)c2c(Cl)cccc2Cl)N2CCC(F)CC2)cn1 (single isomer, unassigned; (+)) [(+)2,6-dichloro-N-[2-(4-fluoro-1-piperidyl)-2-(2-methylpyrim] [(+)2,6-dichloro-N-(2-(4-fluoropiperidin-1-yl)-2-(2-methylpyrimidin-5-yl)ethyl)benzamide]	8.02
O=C(NCC(c1cnc(C(F)(F)F)nc1)N1CCC(F)CC1)c1c(Cl)cccc1Cl (single isomer, unassigned; (+)) [(+)2,6-dichloro-N-[2-(4-fluoro-1-piperidyl)-2-[2-(trifluorom] [(+)2,6-dichloro-N-(2-(4-fluoropiperidin-1-yl)-2-(2-(trifluoromethyl)pyrimidin-5-yl)ethyl)benzamide]	8.21
O=C(NCC(c1ccc(C(F)F)nc1)N1CCC(F)(F)CC1)c1c(Cl)cccc1Cl (single isomer, unassigned; (+)) [(+)2,6-dichloro-N-[2-[6-(difluoromethyl)-3-pyridyl]-2-(4,4-d] [(+)2,6-dichloro-N-(2-(2-(difluoromethyl)pyridin-5-yl)-2-(4,4-difluoropiperidin-1-yl)ethyl)benzamide]	8.06
O=C(NCC(c1ccc(C(F)(F)F)nc1)N1CCOCC1)c1c(F)cccc1F (single isomer, unassigned; (+)) [(+)2,6-difluoro-N-[2-morpholino-2-[6-(trifluoromethyl)-3-pyr] [(+)2,6-Difluoro-N-[2-morpholino-2-[6-(trifluoromethyl)-3-pyridyl]ethyl]benzamide]	7.54
Cc1ncc(C(CNC(=O)c2cccc(OC(F)F)c2Cl)N2CCC(F)(F)CC2)cn1 (single isomer, unassigned; (+)) [(+)2-chloro-3-(difluoromethoxy)-N-[2-(4,4-difluoro-1-piperid] [(+)2-chloro-3-(difluoromethoxy)-N-(2-(4,4-difluoropiperidin-1-yl)-2-(2-methylpyrimidin-5-yl)ethyl)benzamide]	8.15
COc1cccc(C(=O)NCC(c2cnc(C(F)(F)F)nc2)N2CCOCC2)c1Cl (single isomer, unassigned; (+)) [(+)2-chloro-3-methoxy-N-[2-morpholino-2-[2-(trifluoromethyl)] [(+)2-chloro-3-methoxy-N-(2-morpholino-2-(2-(trifluoromethyl)pyrimidin-5-yl)ethyl)benzamide]	7.80
CS(=O)(=O)c1ccc(Cl)c(C(=O)NCC(c2ccc(C(F)(F)F)nc2)N2CCOCC2)c1 (single isomer, unassigned; (+)) [(+)2-chloro-5-methylsulfonyl-N-[2-morpholino-2-[6-(trifluoro] [(+)2-chloro-5-(methylsulfonyl)-N-(2-morpholino-2-(6-(trifluoromethyl)pyridin-3-yl)ethyl)benzamide]	7.15
O=C(NCC(c1ccc(C(F)(F)F)nc1)N1CCC(F)(F)CC1)c1c(F)cccc1Cl (single isomer, unassigned; (+)) [(+)2-chloro-6-fluoro-N-(2-(4,4-difluoropiperidin-1-yl)-2-(2-(trifluoromethyl)pyridin-5-yl)ethyl)benzamide]	9.21
O=C(NCC(c1ccc(C(F)(F)F)nc1)N1CCOCC1)c1c(F)cccc1Cl (single isomer, unassigned; (+)) [(+)2-chloro-6-fluoro-N-[2-morpholino-2-[6-(trifluoromethyl)-] [(+)2-chloro-6-fluoro-N-(2-morpholino-2-(6-(trifluoromethyl)pyridin-3-yl)ethyl)benzamide]	7.49
O=C(NCC(c1cnc(C2CC2)nc1)N1CCC(F)(F)CC1)c1c(F)cccc1Cl (single isomer, unassigned; (+)) [(+)2-chloro-N-[2-(2-cyclopropylpyrimidin-5-yl)-2-(4,4-difluo] [(+)2-chloro-6-fluoro-N-(2-(2-cyclopropylpyrimidin-5-yl)-2-(4,4-difluoropiperidin-1-yl)ethyl)benzamide]	8.00
O=C(NCC(c1cnc(C2CC2)nc1)N1CCC(F)(F)CC1)c1ccccc1Cl (single isomer, unassigned; (+)) [(+)2-chloro-N-[2-(2-cyclopropylpyrimidin-5-yl)-2-(4,4-difluo] [(+)2-chloro-N-(2-(2-cyclopropylpyrimidin-5-yl)-2-(4,4-difluoropiperidin-1-yl)ethyl)benzamide]	8.52
Cc1ncc(C(CNC(=O)c2ccccc2Cl)N2CCCCC2)cn1 (single isomer, unassigned; (+)) [(+)2-chloro-N-[2-(2-methylpyrimidin-5-yl)-2-(1-piperidyl)eth] [(+)2-chloro-N-(2-(2-methylpyrimidin-5-yl)-2-(piperidin-1-yl)ethyl)benzamide]	7.23
Cc1ncc(C(CNC(=O)c2ccccc2Cl)N2CCOCC2)cn1 (single isomer, unassigned; (+)) [(+)2-chloro-N-[2-(2-methylpyrimidin-5-yl)-2-morpholino-ethyl] [(+)2-chloro-N-(2-(2-methylpyrimidin-5-yl)-2-morpholinoethyl)benzamide]	6.20
Cc1ncc(C(CNC(=O)c2cccc(F)c2Cl)N2CCCC(F)(F)C2)cn1 (single isomer, unassigned; (+)) [(+)2-chloro-N-[2-(3,3-difluoro-1-piperidyl)-2-(2-methylpyrim] [(+)2-chloro-3-fluoro-N-(2-(3,3-difluoropiperidin-1-yl)-2-(2-methylpyrimidin-5-yl)ethyl)benzamide]	7.00
Cc1ncc(C(CNC(=O)c2c(F)cccc2Cl)N2CCCC(F)(F)C2)cn1 (single isomer, unassigned; (+)) [(+)2-chloro-N-[2-(3,3-difluoro-1-piperidyl)-2-(2-methylpyrim] [(+)2-chloro-6-fluoro-N-(2-(3,3-difluoropiperidin-1-yl)-2-(2-methylpyrimidin-5-yl)ethyl)benzamide]	7.28
Cc1ncc(C(CNC(=O)c2ccccc2Cl)N2CCCC(F)(F)C2)cn1 (single isomer, unassigned; (+)) [(+)2-chloro-N-[2-(3,3-difluoro-1-piperidyl)-2-(2-methylpyrim] [(+)2-chloro-N-(2-(3,3-difluoropiperidin-1-yl)-2-(2-methylpyrimidin-5-A)ethyl)benzamide]	7.07
Cn1cc(C(CNC(=O)c2ccccc2Cl)N2CCC(F)(F)CC2)cn1 (single isomer, unassigned; (+)) [(+)2-chloro-N-[2-(4,4-difluoro-1-piperidyl)-2-(1-methylpyraz] [(+)2-chloro-N-(2-(4,4-difluoropiperidin-1-yl)-2-(1-methyl-1H-pyrazol-4-yl)ethyl)benzamide]	6.74
CCc1ncc(C(CNC(=O)c2c(F)cccc2Cl)N2CCC(F)(F)CC2)cn1 (single isomer, unassigned; (+)) [(+)2-chloro-N-[2-(4,4-difluoro-1-piperidyl)-2-(2-ethylpyrimi] [(+)2-chloro-6-fluoro-N-(2-(4,4-difluoropiperidin-1-yl)-2-(2-ethylpyrimidin-5-yl)ethyl)benzamide]	7.85
CCc1ncc(C(CNC(=O)c2ccccc2Cl)N2CCC(F)(F)CC2)cn1 (single isomer, unassigned; (+)) [(+)2-chloro-N-[2-(4,4-difluoro-1-piperidyl)-2-(2-ethylpyrimi] [(+)2-chloro-N-(2-(4,4-difluoropiperidin-1-yl)-2-(2-ethylpyrimidin-5-yl)ethyl)benzamide]	7.92
Cc1ncc(C(CNC(=O)c2cccc(F)c2Cl)N2CCC(F)(F)CC2)cn1 (single isomer, unassigned; (+)) [(+)2-chloro-N-[2-(4,4-difluoro-1-piperidyl)-2-(2-methylpyrim] [(+)2-chloro-3-fluoro-N-(2-(4,4-difluoropiperidin-1-yl)-2-(2-methylpyrimidin-5-yl)ethyl)benzamide]	7.82
COc1cccc(C(=O)NCC(c2cnc(C)nc2)N2CCC(F)(F)CC2)c1Cl (single isomer, unassigned; (+)) [(+)2-chloro-N-[2-(4,4-difluoro-1-piperidyl)-2-(2-methylpyrim] [(+)2-chloro-3-methoxy-N-(2-(4,4-difluoropiperidin-1-yl)-2-(2-methylpyrimidin-5-yl)ethyl)benzamide]	7.92
